Data published in publication PMC3545969, “Mutagenicity and antimutagenicity of (−)-hinokinin a trypanosomicidal compound measured by Salmonella microsome and comet assays” (BMC Complementary and Alternative Medicine, 2012).
Read-outs that look alike come from different tables or passages of the source. Marks after values point to notes of the source that are not given here.

Columns and labels:
[1] = test system: Salmonella typhimurium TA97a; settings: for % inhibition / Number of revertants(M ± SD)/ plate: TA 97a
V79 cells = experiment: Comet assay, antigenotoxicity against DXR in V79 cells; format: cell-based, Chinese hamster; parameters: Class 0 / Class 1 / Class 2 / Class 3: unit not given here; settings: 3 h
Method: Chinese hamster lung fibroblasts (V79) were kindly supplied by Professor Cólus (Universidade Estadual de Londrina (UEL), Paraná, Brazil). Cells were maintained as monolayers in plastic culture flasks (25 cm^2) in HAM-F10 (Sigma-Aldrich) plus DMEM (Sigma-Aldrich, 1:1) culture medium supplemented with 10%; fetal bovine serum (Nutricell), antibiotics (0.01 mg mL^−1 streptomycin and 0.005 mg mL^−1 penicillin; Sigma-Aldrich) and 2.38 mg mL^−1 Hepes (Sigma-Aldrich), at 37°C in a BOD-type chamber. Under these conditions, the average cell cycle time was 12 h.
HK was first dissolved in a mixture of methanol (100 μL) and distilled water (900 μL). The final concentration of methanol in the culture was 0.1%;. The choice of concentrations was based on the results of previous experiments with HK [12]. In the experiments, 3 × 10^5 cells (V79) were seeded into tissue-culture flasks, incubated for two cycles (24 h) in complete HAM-F10/DMEM medium, washed with phosphate buffer saline (PBS), and then subjected to one of the following treatments, in serum-free medium, for 3 h. To assess genotoxicity, the cells were treated with each concentration of HK alone, while for antigenotoxicity, they were treated with the mutagen DXR (0.3 μM) in combination with each HK concentration. Positive (DXR) and negative controls were also included in the test. At the end of the treatment, the cells were washed with ice-cold PBS and trypsinized with 200 μL trypsin. After 3 min, the cells were gently resuspended in complete medium and 20 μL of the cell suspension was immediately used for the test.
The procedures described by Singh et al. were adopted, with minor modifications, as described in detail by Speit and Hartmann and reviewed by Burlinson et al.. Briefly, a microscope slide was covered with a base layer of 1.5%; normal-melting agarose (Invitrogen) and 20 μL of the test cells suspended in 120 μL 0.5%; low-melting agarose (Invitrogen) at 37°C was then spread over the base layer. A coverslip was added and the agarose allowed to solidify at 4°C for 15 min. Next, the coverslip was gently removed and the slides were immersed in freshly prepared lysing solution consisting of 89 mL stock solution (2.5 M NaCl, 100 mM EDTA, 10 mM Tris, pH 10.0, and 1%; sodium lauryl sarcosine), 10 mL DMSO and 1 mL Triton X-100, pH 10.0, at 4°C, for at least 20 h, protected from light. At the end of this period, the slides were transferred to an electrophoresis chamber containing a high pH (>13.0) buffer (300 mM NaOH, 1 mM EDTA) and incubated at 4°C for 20 min to allow the DNA to unwind. A current of 25 V (1.0 V cm^−1, 300 mA) was applied for 20 min. The slides were then submerged in a neutralization buffer (0.4 M Tris - HCl, pH 7.5) for 15 min, dried at room temperature and fixed in 100%; ethanol for 10 min.
The slides were stained with 100 μL ethidium bromide (20 μg ml^−1) and covered with a coverslip. All the slides in the experiment were coded before analysis. The stained nucleoids were immediately evaluated at 1000x magnification under a Nikon fluorescence microscope fitted with a 515–560 nm excitation filter and a 590 nm barrier filter.
For each treatment, the extent and distribution of DNA damage indicated by the comet assay were evaluated by examining 100 randomly selected and non-overlapping cells on the slides (i.e. 300 nucleoids per treatment). For each slide, the cells were visually scored and allocated to one of four classes (0, 1, 2 and 3), according to tail size, as follows: class 0, undamaged, no tail; class 1, a short tail whose length was smaller than the diameter of the comet head (nucleus); class 2, tail length between 1 and 2 times the diameter of the head; and class 3, maximally damaged: a long tail measuring more than twice the diameter of the head. The few comets containing no head and those with almost all DNA in the tail, or with a very wide tail, were excluded from the analysis since they may arise from dead cells. […]

[2] = + S9, HK 19.5 μg/plate + 2-AA 1.25 μg/plate
[3] = + S9, HK 39.0 μg/plate + 2-AA 1.25 μg/plate
[4] = + S9, HK 58.5 μg/plate + 2-AA 1.25 μg/plate
[5] = + S9, HK 78.0 μg/plate + 2-AA 1.25 μg/plate
[6] = + S9, HK […] + 2-AA 1.25 μg/plate

O=C1OC[C@H](Cc2ccc3c(c2)OCO3)[C@H]1Cc1ccc2c(c1)OCO2 [HK, (−)-hinokinin]
% inhibition [1, 2]: 45*** %
Number of revertants(M ± SD)/ plate [1, 2]: 659 + 41 revertants/plate
% inhibition [1, 3]: 49*** %
Number of revertants(M ± SD)/ plate [1, 3]: 628 + 16 revertants/plate
% inhibition [1, 4]: 67*** %
Number of revertants(M ± SD)/ plate [1, 4]: 456 + 13 revertants/plate
% inhibition [1, 5]: 60*** %
Number of revertants(M ± SD)/ plate [1, 5]: 523 + 86 revertants/plate
% inhibition [1, 6]: 43*** %
Number of revertants(M ± SD)/ plate [1, 6]: 682 + 52 revertants/plate
Number of revertants(M ± SD)/ plate ([1]; - S9, HK 19.5 μg/plate + NOPD 10.0 μg/plate): 948 + 24 revertants/plate
Number of revertants(M ± SD)/ plate ([1]; - S9, HK 39.0 μg/plate + NOPD 10.0 μg/plate): 979 + 84 revertants/plate
Number of revertants(M ± SD)/ plate ([1]; - S9, HK 58.5 μg/plate + NOPD 10.0 μg/plate): 1006 + 54 revertants/plate
Number of revertants(M ± SD)/ plate ([1]; - S9, HK 78.0 μg/plate + NOPD 10.0 μg/plate): 1026 + 75 revertants/plate
Number of revertants(M ± SD)/ plate ([1]; - S9, HK […] + NOPD 10.0 μg/plate): 934 + 33 revertants/plate
effect on mutagenesis induced by NOPD ([1]; TA97a, absence of metabolic activation): did not reduce mutagenesis
potentiation of NOPD-induced effect (revertants vs positive control alone) ([1]; strain 97a, −S9, HK + NOPD): potentiated NOPD -induced clastogenicity
Class 0 (V79 cells; HK 0.5 μM + DXR 0.3 μM): 73.0 ± 7.0
Class 1 (V79 cells; HK 0.5 μM + DXR 0.3 μM): 20.0 ± 7.5
Class 2 (V79 cells; HK 0.5 μM + DXR 0.3 μM): 4.6 ± 1.5
Class 3 (V79 cells; HK 0.5 μM + DXR 0.3 μM): 2.0 ± 2.0
Reduction % (of DXR-induced DNA damage) (V79 cells; HK 0.5 μM + DXR 0.3 μM): 76.0%
Score (V79 cells; HK 0.5 μM + DXR 0.3 μM): 36.0 ± 6.1^a,b
Class 0 (V79 cells; HK 1.0 μM + DXR 0.3 μM): 68.0 ± 2.0
Class 1 (V79 cells; HK 1.0 μM + DXR 0.3 μM): 20.6 ± 2.5
Class 2 (V79 cells; HK 1.0 μM + DXR 0.3 μM): 8.0 ± 2.0
Class 3 (V79 cells; HK 1.0 μM + DXR 0.3 μM): 3.3 ± 0.5
Reduction % (of DXR-induced DNA damage) (V79 cells; HK 1.0 μM + DXR 0.3 μM): 60.8%
Score (V79 cells; HK 1.0 μM + DXR 0.3 μM): 46.0 ± 3.0^a,b
Class 0 (V79 cells; HK 2.0 μM + DXR 0.3 μM): 65.0 ± 6.8
Class 1 (V79 cells; HK 2.0 μM + DXR 0.3 μM): 27.0 ± 6.6
Class 2 (V79 cells; HK 2.0 μM + DXR 0.3 μM): 4.3 ± 2.3
Class 3 (V79 cells; HK 2.0 μM + DXR 0.3 μM): 2.6 ± 1.6
Reduction % (of DXR-induced DNA damage) (V79 cells; HK 2.0 μM + DXR 0.3 μM): 63.4%
Score (V79 cells; HK 2.0 μM + DXR 0.3 μM): 44.3 ± 9.2^a,b
Class 0 (V79 cells; HK 32 μM + DXR 0.3 μM): 35.0 ± 5.0
Class 1 (V79 cells; HK 32 μM + DXR 0.3 μM): 33.0 ± 3.0
Class 2 (V79 cells; HK 32 μM + DXR 0.3 μM): 30.0 ± 4.1^b
Class 3 (V79 cells; HK 32 μM + DXR 0.3 μM): 1.0 ± 1.0
Score (V79 cells; HK 32 μM + DXR 0.3 μM): 97.0 ± 10.0^a
Class 0 (V79 cells; HK 64 μM + DXR 0.3 μM): 32.0 ± 6.1
Class 1 (V79 cells; HK 64 μM + DXR 0.3 μM): 39.0 ± 3.7
Class 2 (V79 cells; HK 64 μM + DXR 0.3 μM): 26.0 ± 2.0
Class 3 (V79 cells; HK 64 μM + DXR 0.3 μM): 2.0 ± 2.0
Score (V79 cells; HK 64 μM + DXR 0.3 μM): 97.0 ± 10.0^a
Class 0 (V79 cells; HK […] + DXR 0.3 μM): 28.0 ± 6.6
Class 1 (V79 cells; HK […] + DXR 0.3 μM): 40.0 ± 1.0
Class 2 (V79 cells; HK […] + DXR 0.3 μM): 29.0 ± 5.2^b
Class 3 (V79 cells; HK […] + DXR 0.3 μM): 3.0 ± 2.5
Score (V79 cells; HK […] + DXR 0.3 μM): 106.0 ± 16.0^a
